Assay [1] concerns the target JAK1 (recombinant purified GST-tagged catalytic domain) (Homo sapiens (Human), UniProt P23458).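 Also: biochemical assay with HTRF read-out.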
Assay [2] deals with JAK2 (recombinant purified GST-tagged catalytic domain) (Homo sapiens (Human), UniProt O60674).

pIC50: −log10 of the molar value. Some results are limits rather than exact numbers.

Sequence of JAK2 (recombinant purified GST-tagged catalytic domain) (O60674 849-1124): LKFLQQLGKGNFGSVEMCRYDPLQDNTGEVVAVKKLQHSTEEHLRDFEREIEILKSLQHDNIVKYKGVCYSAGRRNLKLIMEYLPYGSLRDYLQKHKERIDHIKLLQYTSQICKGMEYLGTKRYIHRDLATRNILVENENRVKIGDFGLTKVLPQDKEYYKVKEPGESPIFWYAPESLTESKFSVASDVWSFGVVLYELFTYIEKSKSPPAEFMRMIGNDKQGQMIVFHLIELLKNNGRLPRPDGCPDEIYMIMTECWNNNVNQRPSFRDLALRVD
Sequence of JAK1 (recombinant purified GST-tagged catalytic domain) (P23458 875-1153): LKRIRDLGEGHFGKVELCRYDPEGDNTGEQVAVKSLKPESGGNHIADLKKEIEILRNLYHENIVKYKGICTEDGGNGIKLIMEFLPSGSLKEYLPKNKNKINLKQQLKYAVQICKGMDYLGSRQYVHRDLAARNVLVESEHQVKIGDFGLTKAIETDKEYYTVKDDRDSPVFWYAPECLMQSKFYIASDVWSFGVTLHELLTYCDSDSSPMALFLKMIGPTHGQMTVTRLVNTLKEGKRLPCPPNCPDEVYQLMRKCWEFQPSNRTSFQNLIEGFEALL

What is called pIC50 is the IC50 on a negative log10 scale, so that one unit is a factor of ten. As for `N#C[C@@H]1CCC[C@@H]1n1cc(C(N)=O)c(Nc2ccccc2)n1` (mixture of isomers) [Example 1-1, 1-{[(1S,2R) and (1R,2S)]-2-cyanocyclopentyl]}-3-(phenylamino)-1H-pyrazole-4-carboxamide], the pIC50 in assay [1] is 7.02; in assay [2] it was 6.16.
Taken in the same sequence, the figures for `N#C[C@H]1CCC[C@@H]1n1cc(C(N)=O)c(Nc2ccccc2)n1` (mixture of isomers) [Example 1-2, 1-{[(1S,2S) and (1R,2R)]-2-cyanocyclopentyl]}-3-(phenylamino)-1H-pyrazole-4-carboxamide] were 8.10 and 7.00.
Taken in the same sequence, the figures for `CS(=O)(=O)c1ccc(Nc2nn([C@H]3CCC[C@@H]3C#N)cc2C(N)=O)cc1` (mixture of isomers) [Example 1-4, 1-{[(1S,2S) and (1R,2R)-2-cyanocyclopentyl]}-3-{4-(methylsulfonyl)phenyl]amino}-1H-pyrazole-4-carboxamide] were 9.30 and 7.96.
With `CS(=O)(=O)c1ccc(Nc2nn([C@H]3CCC[C@H]3C#N)cc2C(N)=O)cc1` (mixture of isomers) [Example 1-5, 1-{[(1S,2R) and (1R,2S)]-2-cyanocyclopentyl]}-3-{[4-(methylsulfonyl)phenyl]amino}-1H-pyrazole-4-carboxamide], the pIC50 in assay [1] was 8.30; in assay [2] it was 7.09.
For the compound `N#C[C@@H]1CCCC[C@@H]1n1cc(C(N)=O)c(Nc2ccc(CC(=O)O)cc2)n1` (mixture of isomers) [Example 3-1, [4-({4-carbamoyl-1-[(1S,2R and 1R,2S)-2-cyanocyclohexyl]-1H-pyrazol-3-yl}amino)phenyl]acetic acid], the pIC50 in assay [2] is 6.96.
`CN(C)[C@H]1CC[C@H](C#N)[C@@H](n2cc(C(N)=O)c(Nc3ccc(F)cc3)n2)C1` (mixture of isomers) [Example 6-1, 1-[(1S,2S,5S and 1R,2R,5R)-2-cyano-5-(dimethylamino)cyclohexyl]-3-[(4-fluorophenyl)amino]-1H-pyrazole-4-carboxamide]: the negative logarithm of the IC50 (pIC50) in assay [1] is 6.39; in assay [2], less than 5.82.
`CN(C)[C@@H]1CC[C@H](C#N)[C@@H](n2cc(C(N)=O)c(Nc3ccc(F)cc3)n2)C1` (mixture of isomers) [Example 6-2, 1-[(1S,2S,5R and 1R,2R,5S)-2-cyano-5-(dimethylamino)cyclohexyl]-3-[(4-fluorophenyl)amino]-1H-pyrazole-4-carboxamide]: the pIC50 in assay [1] is 6.52; in assay [2] it was less than 5.82.
The corresponding values for `CN[C@@H]1CC[C@H](C#N)[C@@H](n2cc(C(N)=O)c(Nc3ccc(F)cc3)n2)C1` (mixture of isomers) [Example 6-3, 1-{[(1S,2S,5R) and (1R,2R,5S)]-2-cyano-5-(methylamino)cyclohexyl}-3-[(4-fluorophenyl)amino]-1H-pyrazole-4-carboxamide] are 6.60 and less than 5.82.
Taken in the same sequence, the figures for `N#C[C@H]1CC[C@H](NCc2ccccc2)C[C@@H]1n1cc(C(N)=O)c(Nc2ccc(F)cc2)n1` (mixture of isomers) [Example 6-4, 1-{[(1S,2S,5S) and (1R,2R,5R)]-5-(benzylamino)-2-cyanocyclohexyl}-3-[(4-fluorophenyl)amino]-1H-pyrazole-4-carboxamide] were 8.40 and 7.26.
Taken in the same sequence, the figures for `CN[C@H]1CC[C@H](C#N)[C@@H](n2cc(C(N)=O)c(Nc3ccc(F)cc3)n2)C1` (mixture of isomers) [Example 6-5, 1-{[(1S,2S,5S) and (1R,2R,5R)-2-cyano-5-(methylamino)cyclohexyl]-3-[(4-fluorophenyl)amino]-1H-pyrazole-4-carboxamide] were 6.39 and less than 5.82.
As to `N#C[C@H]1CC[C@@H](NCc2ccccc2)C[C@@H]1n1cc(C(N)=O)c(Nc2ccc(F)cc2)n1` (mixture of isomers) [Example 6-6, 1-{[(1S,2S,5R) and (1R,2R,5S)]-5-(benzylamino)-2-cyanocyclohexyl}-3-[(4-fluorophenyl)amino]-1H-pyrazole-4-carboxamide], the pIC50 in assay [1] is 7.96; in assay [2] it was 6.77.
Taken in the same sequence, the figures for `CC1(C)CC[C@H](C#N)[C@@H](n2cc(C(N)=O)c(Nc3ccccc3)n2)C1` (mixture of isomers) [Example 11-1, 1-{[(1S,2S) and (1R,2R)]-2-Cyano-5,5-dimethylcyclohexyl}-3-(phenylamino)-1H-pyrazole-4-carboxamide] were 7.27 and 6.75.
The corresponding values for `CC1(C)CC[C@@H](C#N)[C@@H](n2cc(C(N)=O)c(Nc3ccccc3)n2)C1` (mixture of isomers) [Example 11-2, 1-{[(1S,2R) and (1R,2S)]-2-Cyano-5,5-dimethylcyclohexyl}-3-(phenylamino)-1H-pyrazole-4-carboxamide] are 7.96 and 7.30.
The corresponding values for `CC(C)(C)OC(=O)NCC1CC[C@@H](C#N)[C@@H](n2cc(C(N)=O)c(Nc3ccc(F)cc3)n2)C1` (mixture of isomers) [Example 11-8, tert-butyl {[(3S,4R) and (3R,4S)]-3-{4-carbamoyl-3-[(4-fluorophenyl)amino]-1H-pyrazol-1-yl}-4-cyanocyclohexyl]methyl}carbamate] are 6.80 and less than 5.82.
With `CC(C)(C)OC(=O)C1CC[C@H](C#N)[C@@H](n2cc(C(N)=O)c(Nc3ccccc3)n2)C1` (mixture of isomers) [Example 12-1, (3S,4S and 3R,4R)-tert-butyl 3-(4-carbamoyl-3-(phenylamino)-1H-pyrazol-1-yl)-4-cyanocyclohexanecarboxylate], the pIC50 is 8.15 in assay [1] and 7.30 in assay [2].
On to `CC(C)(C)OC(=O)C1CC[C@@H](C#N)[C@@H](n2cc(C(N)=O)c(Nc3ccccc3)n2)C1` (mixture of isomers) [Example 12-2, (3S,4R and 3R,4S)-tert-butyl 3-(4-carbamoyl-3-(phenylamino)-1H-pyrazol-1-yl)-4-cyanocyclohexanecarboxylate], for which the pIC50 in assay [1] is 6.59; in assay [2], less than 5.82.
Consider `CS(=O)(=O)c1ccc(Nc2nn([C@H]3CCCC[C@@H]3C#N)cc2C(N)=O)cc1` (single isomer, unassigned) [Example 42-2, 1-[(1S,2S or 1R,2R)-2-cyanocyclohexyl]-3-{[4-(methylsulfonyl)phenyl]amino}-1H-pyrazole-4-carboxamide], for which the negative-log IC50 (pIC50) in assay [2] is 7.57.
Regarding `CS(=O)(=O)c1ccc(Nc2nn([C@H]3CCCC[C@H]3C#N)cc2C(N)=O)cc1` (single isomer, unassigned) [Example 42-3, 1-[(1S,2R or 1R,2S)-2-cyanocyclohexyl]-3-{[4-(methylsulfonyl)phenyl]amino}-1H-pyrazole-4-carboxamide], in assay [2], the negative logarithm of the IC50 (pIC50) is 7.07.
Turning to `CS(=O)(=O)c1ccc(Nc2nn([C@H]3CCCC[C@H]3C#N)cc2C(N)=O)cc1` (single isomer, unassigned) [Example 42-4, 1-[(1S,2R or 1R,2S)-2-cyanocyclohexyl]-3-{[4-(methylsulfonyl)phenyl]amino}-1H-pyrazole-4-carboxamide], the negative logarithm of the IC50 (pIC50) in assay [2] was 8.15.
The same measure, in the same setting: next, `CS(=O)(=O)c1ccc(Nc2nn(C3CCCCC3C#N)cc2C(N)=O)cc1` (centres unmarked) [Example 2-15, 1-(2-cyanocyclohexyl)-3-{[4-(methylsulfonyl)phenyl]amino}-1H-pyrazole-4-carboxamide]: 8.05.

(Values after patent US8962608B2, “Cycloalkylnitrile pyrazole carboxamides as janus kinase inhibitors” (Merck Sharp & Dohme Corp., priority 2011, dated 2015).)
